Bounds are passed on as bounds.

One test concerns Myzus persicae. Description: Example E: Myzus persicae, leaf dip method (capsicum leaves). The test is classed as in vivo. The settings on record: foliar, third instar nymphs, 72 h after release, dead and moribund combined, read-out: percent mortality. The method, then:
(§1) Test solutions were prepared according to the procedure described herein below (500 PPM):
(§2) • 1. Eppendorf Vortex mixer (ThermoMixer C) and 1.5 mL Eppendorf tubes • 2. Beaker—100 mL • 3. Micro-pipette Reagents: • 1. Surfactant Solution • 2. De-mineralized (DM) Water Procedure: • 1. Weigh 10 mg of the compound of the present invention to be tested in an Eppendorf Tube. • 2. Add 200 mg of the Surfactant Solution into the tube. • 3. Fix the tube in Eppendorf Vortex mixer and start vortexing at 2000 rpm. • 4. Mix on Vortex mixer for 30 min. After 30 min, observe the sample over a microscope at 400× resolution. • 5. Add 1.0 mL DM water into the tube, close the cap, shake the tube thoroughly and transfer the contents, along with the beads, into a beaker. • 6. To rinse the tube, add another 1.0 mL of DM water into the tube, close the cap, shake well and transfer this into the same beaker. • 7. Repeat […] one more time so that the tube is rinsed well and all the compound of the present invention is transferred to the beaker. • 8. Add 16.8 mL of DM water into the beaker and stir well. • 9. Immediately use this sample for biological testing. • 10. Further dilutions can be prepared by taking appropriate quantity of the aliquot of Step 8, immediately after stirring, and diluting as per requirement. The sample solution must be well mixed just before biological testing.
(§3) Leaf dip method was used for screening, wherein the required quantity of the compounds were weighed and dissolved in the test solution into the tube and vortex at 2000 rpm with Zirconia beads for 90 min and for proper mixing, then mixed with 0.01% Triton-X solution to get the desired test concentration. Capsicum leaves were dipped in the solution for 10 seconds, shade dried for 20 min and then leaves were kept in glass units with petiole dipped in water. Known numbers of third instar nymphs were released and were kept in the plant growth chamber at a temperature of 25° C. and Relative Humidity of 70%. Observations on dead, moribund and live nymphs were recorded at 72 h after the release. Percent mortality was calculated by combining dead and moribund nymphs. The following compound numbers

The next test deals with Bemisia tabaci. Briefly: Example D: Bemisia tabaci, leaf dip method (cotton leaves). The test is classed as in vivo. The settings on record: foliar, freshly emerged adults, 72 h after release, dead and moribund combined, read-out: percent mortality. On the procedure: as §1, §2
as §3, with “Cotton” for “Capsicum”, “Known numbers of third instar nymphs were released and were kept in the plant growth chamber at a temperature of 25° C. and Relative Humidity of 70%.” left out, “[…]” for “nymphs”, “adults. […]” for “nymphs. The following compound numbers”

Consider `Cc1cc(Cl)cc(C(=O)NC(C)(C)C)c1NC(=O)c1cc(OC2CSC2)nn1-c1ncccc1Cl` [Compound 97, N-(2-(tert-butylcarbamoyl)-4-chloro-6-methylphenyl)-1-(3-chloropyridin-2-yl)-3-(thietan-3-yloxy)-1H-pyrazole-5-carboxamide], for which the mortality at 300 ppm with Myzus persicae and in the test on Bemisia tabaci was greater than 50% each time.

With `Cc1cc(Cl)cc(C(=O)NC(C)(C)C)c1NC(=O)c1cc(OC2CS(=O)(=O)C2)nn1-c1ncccc1Cl` [Compound 99, N-(2-(tert-butylcarbamoyl)-4-chloro-6-methylphenyl)-1-(3-chloropyridin-2-yl)-3-((1,1-dioxidothietan-3-yl)oxy)-1H-pyrazole-5-carboxamide], the mortality (commonly the share of the test organisms that died) at 300 ppm with Bemisia tabaci is greater than 50%.

Regarding `CC(C)(C)NC(=O)c1cc(Cl)cc(Cl)c1NC(=O)c1cc(OC2CSC2)nn1-c1ncccc1Cl` [Compound 176, N-(2-(tert-butylcarbamoyl)-4,6-dichlorophenyl)-1-(3-chloropyridin-2-yl)-3-(thietan-3-yloxy)-1H-pyrazole-5-carboxamide], the mortality at 300 ppm in the test on Myzus persicae and in the test with Bemisia tabaci was greater than 50% in each case.
